Test results taken from patent publication US5792761A, “Thrombin inhibitors” (Merck & Co., Inc., priority 1997, dated 1998).
Non-standard residues stand in square brackets, D forms with d. Residues, ends and D or L forms follow the SMILES beside them. *: point of attachment. AFC = O=c1cc(C(F)(F)F)c2ccc(N*)cc2o1; pNA = O=[N+]([O-])c1ccc(N*)cc1; Cbz = O=C(OCc1ccccc1)*; Sar = CNCC(=O)O

How the values were obtained:
thrombin = test: More sensitive thrombin activity assay: hydrolysis of fluorogenic substrate Z-GPR-afc (fluorescence at 500 nm); assay type: biochemical, human; settings: fluorescence at 500 nm (excitation at 400 nm)
Description: (§1) Assays of human a-thrombin and human trypsin were performed at 25° C. in 0.05M TRIS buffer pH 7.4, 0.15M NaCl, 0.1% PEG. Trypsin assays also contained 1 mM CaCl2.
(§2) In certain studies with potent inhibitors (Ki <10 nM) where the degree of inhibition of thrombin was high, a more sensitive activity assay was employed. […] Concentrations of stock solutions of Z-GPR-afc were determined from measurements of absorbance at 380 nm of the 7-amino-4-trifluoromethyl coumarin produced upon complete hydrolysis of an aliquot of the stock solution by thrombin.
(§3) Activity assays were performed by diluting a stock solution of substrate at least tenfold to a final concentration 0.5 Km into a solution containing enzyme or enzyme equilibrated with inhibitor. Times required to achieve equilibration between enzyme and inhibitor were determined in control experiments. Initial velocities of product formation in the absence (Vo) or presence of inhibitor (Vi) were measured. Assuming competitive inhibition, and that unity is negligible compared Km /[S], […] (where [S], [I], and e respectively represent the total concentrations, of substrate, inhibitor and enzyme), the equilibrium constant (Ki) for dissociation of the inhibitor from the enzyme can be obtained from the dependence of Vo /Vi on [I] shown in equation 1.

human trypsin = test: In vitro assay for determining proteinase inhibition: human trypsin (sar-PR-pna hydrolysis at 405 nm); assay type: biochemical; settings: 25° C., pH 7.4, 1 mM CaCl2; chromogenic substrate
Description: (§4) In vitro assay for determining proteinase inhibition
as §1, §3

human thrombin = test: In vitro assay for determining proteinase inhibition: human thrombin (sar-PR-pna hydrolysis at 405 nm; Z-GPR-afc for potent inhibitors); assay type: biochemical; settings: 25° C., pH 7.4; chromogenic substrate
Description: as §4, §1, §2, §3

| Km (thrombin) [µM] | SMILES | Km (human trypsin) [µM] | Km (human thrombin) [µM] |
| --- | --- | --- | --- |
| 27 | N=C(N)NCCC[C@H](NC(=O)[C@@H]1CCCN1C(=O)CNC(=O)OCc1ccccc1)C(=O)Nc1ccc2c(C(F)(F)F)cc(=O)oc2c1 [Z-GPR-afc, Cbz-Gly-Pro-Arg-7-amino-4-trifluoromethylcoumarin] (Cbz-Gly-Pro-Arg-{AFC}) | – | – |
| – | CNCC(=O)N1CCC[C@H]1C(=O)N[C@@H](CCCNC(=N)N)C(=O)Nc1ccc([N+](=O)[O-])cc1 [sar-PR-pna, sarcosine-Pro-Arg-p-nitroanilide] (H-[Sar]-Pro-Arg-pNA) | 59 | 125 |
